One assay concerns the target T1, RIPK1 (Homo sapiens, UniProt Q13546).
T1 construct: purchased DiscoverX
T1 sequence (Q13546 1-671): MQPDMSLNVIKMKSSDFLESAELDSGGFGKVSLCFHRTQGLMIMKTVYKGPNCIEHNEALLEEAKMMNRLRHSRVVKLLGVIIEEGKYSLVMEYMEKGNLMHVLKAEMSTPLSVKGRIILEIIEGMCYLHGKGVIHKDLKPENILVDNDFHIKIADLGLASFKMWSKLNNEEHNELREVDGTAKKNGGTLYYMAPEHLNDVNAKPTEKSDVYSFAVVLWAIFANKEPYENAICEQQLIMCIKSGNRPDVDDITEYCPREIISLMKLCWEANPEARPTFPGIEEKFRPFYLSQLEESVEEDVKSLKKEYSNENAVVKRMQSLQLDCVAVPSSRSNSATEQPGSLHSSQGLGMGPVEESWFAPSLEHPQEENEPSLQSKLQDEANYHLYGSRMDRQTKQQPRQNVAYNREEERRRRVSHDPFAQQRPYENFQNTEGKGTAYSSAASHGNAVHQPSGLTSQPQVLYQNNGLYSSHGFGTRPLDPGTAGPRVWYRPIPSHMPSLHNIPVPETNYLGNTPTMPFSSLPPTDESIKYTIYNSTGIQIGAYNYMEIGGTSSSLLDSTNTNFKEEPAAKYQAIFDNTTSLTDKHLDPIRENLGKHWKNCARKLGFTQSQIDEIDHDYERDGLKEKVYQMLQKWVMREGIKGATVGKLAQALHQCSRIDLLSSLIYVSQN
Briefly: RIPK1 inhibitory activity, DiscoverX scanMAX kinase panel (% control). The conditions noted are these: drug concentration 1 μM in DMSO, <35% counted as active, read-out: control percentage (% control) RIPK1. The format is binding. As for the experimental part:
To evaluate the RIPK1 inhibitory activity of a compound according to the present invention, the following experiment was performed. Specifically, for Examples 3 and 30 selected from the compounds of Examples of the present invention, enzyme (kinase) selectivity was measured by DiscoverX, and the experiment was conducted using a panel for scanMAX™ kinase analysis. Here, the enzyme was treated with a drug having a concentration of 1 μM in DMSO, and a control percentage (% control) was determined in the same manner as Formula 1 below.
Here, the positive control refers to a compound showing a control percentage of 0%, and the negative control is DMSO showing a control percentage of 100%. In addition, in terms of the enzyme selectivity of the present invention, when the control percentage with respect to an enzyme is <35% (i.e., less than 35%), it was determined that the compound has activity against the corresponding enzyme.

Another assay has as its system HT-29 cells. The experiment in a line: Cell necrosis inhibitory activity under necroptosis-inducing conditions (TNF-α, Z-VAD-FMK, LCL161) in HT-29 cells, Cell Titer-Glo. The format is cell-based. The conditions noted are these: Homo sapiens, 100 ng/mL TNF-α + 25 μM Z-VAD-FMK + Smac mimetic LCL161, 24 hours, cell viability. The procedure, abridged:
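HT-29 cells seeded 24 h, then necroptosis induced with 100 ng/mL TNF-α, 25 μM Z-VAD-FMK and 10 μM LCL161 for 10 min before compound (11 points, 3-fold, top 0.1 or 1 μM; 0.05% DMSO). After 24 h, viability by CellTiter-Glo luminescence relative to untreated controls gave EC50 (nM).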

The values that follow come from patent publication US20250019373A1, “ARYL OR HETEROARYL DERIVATIVE, AND PHARMACEUTICAL COMPOSITION COMPRISING SAME AS ACTIVE INGREDIENT FOR PREVENTION OR TREATMENT OF KINASE-RELATED DISEASES” (VORONOI INC., priority 2021, published 2025).

A word on the EC50: it is the concentration at which the effect is half-maximal.

For `COc1ncc(-c2ccc3nc(NC(C)=O)cn3n2)cc1NC(=O)N1OCC[C@H]1c1ccccc1` [Example 3, (S)-N-(5-(2-acetamidoimidazo[1,2-b]pyridazin-6-yl)-2-methoxypyridin-3-yl)-3-phenylisoxazolidine-2-carboxamide], the remaining binding at 1 µM at RIPK1 amounted to 1%. Further, the EC50 with HT-29 cells came out at 0.6 nM. For `COc1ncc(-c2ccc3nc(N)nn3c2)cc1NC(=O)N1OCC[C@H]1c1ccccc1` [Example 30, (S)-N-(5-(2-amino-[1,2,4]triazolo[1,5-a]pyridin-6-yl)-2-methoxypyridin-3-yl)-3-phenylisoxazolidine-2-carboxamide], on RIPK1, the remaining binding at 1 µM was found to be 0%. Moreover, the EC50 with HT-29 cells came out at 3.8 nM. Consider `COc1ccc(-c2ccc3nc(NC(C)=O)oc3c2)cc1NC(=O)N1OCC[C@H]1c1ccccc1` [Example 16, (S)-N-(5-(2-acetamidobenzo[d]oxazol-6-yl)-2-methoxyphenyl)-3-phenylisoxazolidine-2-carboxamide], for which the EC50 in the assay on HT-29 cells stood at 4.9 nM. For the compound `Cc1ccc(-c2ccc3ncn(C)c3n2)cc1NC(=O)N1OCC[C@H]1c1ccccc1` [Example 143, (S)-N-(2-methyl-5-(3-methyl-3H-imidazo[4,5-b]pyridin-5-yl)phenyl)-3-phenylisoxazolidine-2-carboxamide], the EC50 in the assay on HT-29 cells is 5 nM. For `Cc1ccc(-c2ccn3nc(N)nc3c2)cc1NC(=O)N1OCC[C@H]1c1ccc(C#N)cc1` [Example 92, (S)-N-(5-(2-amino-[1,2,4]triazolo[1,5-a]pyridin-7-yl)-2-methylphenyl)-3-(4-cyanophenyl)isoxazolidine-2-carboxamide], the EC50 in the assay with HT-29 cells was found to be 0.6 nM. Turning to `COc1ncc(-c2ccc3nc(NC(C)=O)sc3n2)cc1NC(=O)N1OCC[C@H]1c1ccccc1` [Example 14, (S)-N-(5-(2-acetamidothiazolo[5,4-b]pyridin-5-yl)-2-methoxypyridin-3-yl)-3-phenylisoxazolidine-2-carboxamide], the EC50 in the assay with HT-29 cells was found to be 0.7 nM. As to `Cc1ncc(-c2ccc3nc(N)nn3c2)cc1NC(=O)N1OCC[C@H]1c1cc(F)cc(F)c1` [Example 38, (S)-N-(5-(2-amino-[1,2,4]triazolo[1,5-a]pyridin-6-yl)-2-methylpyridin-3-yl)-3-(3,5-difluorophenyl)isoxazolidine-2-carboxamide], in the assay with HT-29 cells, the EC50 stood at 1.6 nM. For the compound `Cc1ncc(-c2ccc3nc(N)nn3c2)cc1NC(=O)N1OCC[C@H]1c1cccc(Cl)c1` [Example 39, (S)-N-(5-(2-amino-[1,2,4]triazolo[1,5-a]pyridin-6-yl)-2-methylpyridin-3-yl)-3-(3-chlorophenyl)isoxazolidine-2-carboxamide], the EC50 in the assay with HT-29 cells was 0.9 nM. Turning to `CNC(=O)c1n[nH]c2cc(-c3cc(NC(=O)N4OCC[C@H]4c4ccccc4)cnc3OC)ccc12` [Example 23, (S)-N-(6-methoxy-5-(3-(methylcarbamoyl)-1H-indazol-6-yl)pyridin-3-y1)-3-phenylisoxazolidine-2-carboxamide], the EC50 in the assay on HT-29 cells stood at 8.1 nM.
